Data from a melting point compilation (Tetko et al.; mined from patent text by program, amines drawn as free bases though some values may be those of a salt).

| Compound | melting point |
| --- | --- |
| CCCCCCCCCc1c(O)nc(-c2ccc(-c3ccc(CCCCC)cc3F)cc2)nc1O | 51 °C |
| CCC(C)(C)c1ccc(OCCCCc2c(O)cc3ccccc3c2C(N)=O)c(C(C)(C)CC)c1 | 118 to 124 °C |
| NC(=O)c1cnc2n(c1=O)CCCCC2 | 234 to 235 °C |
| O=S(=O)(CCCc1nc(-c2ccc(F)cc2)c(-c2ccncc2)[nH]1)c1ccccc1 | 109 to 110 °C |
| N[C@@H](Cc1ccc(C(F)(F)F)cc1)[C@H](O)c1ccoc1 (racemic) | 91 to 92 °C |
| COC(=O)CCCCCCCCCCCCCCCCCCCCC(=O)c1c(C)cc(OC)c(OC)c1O | 72 to 72.5 °C |
| CN(Cc1ccc(-c2ccc(O)c(Br)c2)cc1)C(=O)c1cn(Cc2ccccc2)c2ccccc12 | 164 to 170 °C |
| CS(=O)(=O)Nc1cccc(Nc2nc(NC3CCC3)c3nc[nH]c3n2)c1 | 142 to 146 °C |
| Cc1c(C)c2c(c(C)c1N)CC(C)(CN1CCC(OCC=Cc3ccccc3)CC1)O2 (configuration not stated) | 77 to 79 °C |
| Cc1ccc(-n2nc(C(C)(C)C)cc2NC(=O)Nc2ccc(OCCCc3ccncc3)c3ccccc23)cc1 | 205 to 207 °C |
| CC(C)(C)OC(=O)NCCNC(=O)c1ncsc1-c1cccc(OCc2cccc(Cl)c2)c1 | 116 to 117 °C |
| NS(=O)(=O)c1cc(C(=O)O)cc(NCc2ccccc2)c1NCCc1ccccc1 | 203 °C |
| CCCc1c(OCCCCSc2nnc(SCC(=O)O)s2)ccc(C(C)=O)c1O | 123 to 124 °C |
| CCc1ccc(Nc2nc3cc(NC(=O)c4ccc(CC)cc4)ccc3o2)cc1 | > 250 °C |
| O=C1Nc2cccnc2N(C(=O)NCCN2CCCCC2CN2CCCCCC2)c2ccccc21 (configuration not stated) | 156 to 158 °C |
| O=C(O)CNC(=O)CCc1cccc(-c2nc(=O)c3ccccc3s2)n1 | 219 to 220 °C |
| Cc1ccsc1C(=O)c1sc(Nc2ccc(N3CCN(C)CC3)cc2)nc1N | 237 to 238 °C |
| COc1cccc(CNC(=O)c2nc3onc(C)c3c(=O)[nH]2)c1 | 236 to 237 °C |
| O=C1c2ccccc2C(=O)c2sc(-c3ncc(-c4ccccc4)o3)nc21 | > 260 °C |
| CCCc1c(O)cc(O)c(C)c1C(=O)OC | 88 to 91 °C |
| CC(C)C1(C)N=C(c2ncc(O)cc2C(=O)O)NC1=O (configuration not stated) | 255 to 257 °C |
| O=C(Oc1ccccc1)c1cccc([N+](=O)[O-])c1Cl | 46 to 48 °C |
| CCCCOC1CCCC(C2NC(=O)C2C(C)O[Si](C)(C)C(C)(C)C)C1O (configuration not stated) | 105 to 106 °C |

| Compound | melting point |
| --- | --- |
| COC(=O)CN1C(=O)c2ccccc2Nc2ccc(OCc3cccc4ccccc34)cc21 | 85 to 92 °C |
| CN1CCN(C2=Nc3cc(Cl)cc4c3N(CC4)c3ccccc32)CC1 | 199 to 200 °C |
| CC#Cc1cnc(OC)nc1 | 88 to 89.5 °C |
| O=S(=O)(c1ccccc1)c1c(-c2ccc(Cl)cc2)[nH]c(Br)c1Br | > 200 °C |
| CC(C)(C)NCC(O)COc1ccc(F)cc1-c1ccc(=S)[nH]n1 (configuration not stated) | 170 to 173 °C |
| CCCCC(=N)NC(=O)Nc1cccc(C(F)(F)F)c1 | 167 to 169 °C |
| COC(=O)c1c(OC)cc(OC)nc1C(F)(F)F | 85 to 87.5 °C |
| Cc1cc(NC(=O)OC(C)(C)C)c(N)cc1-c1ccccc1 | 122 °C |
| CS(=O)(=O)Oc1cccc2c1C(=O)OC2=O | 134 to 140 °C |
| COC(=O)c1cscc1NC(=O)NCCCCBr | 85 to 86 °C |
| Nc1nc(-c2ccccc2)nc2nc(-c3ccco3)nn12 | > 300 °C |
| c1ccc(COc2cccnc2Cn2ccnc2)cc1 | 73 to 74 °C |
| Nc1nc2ccccc2c2c1ncn2CCOCCCc1cccnc1 | 125 to 128 °C |
| CC(=O)Nc1c(C(=O)c2ccccn2)[nH]c2cc(Cl)ccc12 | 211 to 212 °C |
| Cc1c(Cl)ccc([N+](=O)[O-])c1C#N | 97 to 98 °C |
| COc1ccc(CN2C(=O)C3(COc4cc5c(C)noc5cc43)c3ccccc32)cc1 (configuration not stated) | 183 to 184 °C |
| CSC(=NC(=O)OC(C)(C)C)NNC(=O)NC(=O)OCc1ccccc1 | 120 to 123 °C |
| O=C1O[C@@H](CNC(=S)C(F)F)CN1c1cc(F)c(N2CCS(=O)(=O)CC2)c(F)c1 | 88 to 90 °C |
| COc1cc(Cc2cnc(N)nc2N)c2ccccc2c1OC | 228 to 230 °C |
| COc1cc(Nc2c(C#N)cnc3c(-c4ccc(CN(C)C)cc4)csc23)c(Cl)cc1Cl | 201 to 202 °C |
| CC(C)(C)OC(=O)N[C@@H](Cc1ccccc1)C(=O)CCC(=O)O | 108 to 110 °C |
| Cc1ccc(Cl)c2c1N(C1CC1)CNS2(=O)=O | 215 to 217 °C |
| O=C1C[C@@H](O)C[C@H](CCc2c(Cl)cc(Cl)c3ccc(Cl)cc23)O1 (relative stereo) | 111 to 115 °C |

| Compound | melting point |
| --- | --- |
| [N-]=[N+]=Nc1ccc(Cl)cc1C(=NO)c1ccccc1 | 125 to 132 °C |
| CS(=O)(=O)Nc1c([N+](=O)[O-])cnn1-c1c(Cl)cc(C(F)(F)F)c(F)c1Cl | 107 to 115 °C |
| CN(C1CCN(Cc2csnn2)CC1)S(=O)(=O)c1ccc(Nc2nccc(Nc3ccc(F)c(F)c3)n2)cc1 | 172 to 173 °C |
| OC1Cc2cccc(-c3ccccc3)c2C1 (single isomer, unassigned; (+)) | 100 to 101 °C |
| COc1ccc(NC(=O)Nc2cccc(C(F)(F)F)c2)c(O)n1 | 223 to 224 °C |
| O=C1OC(CN2CCC(O)(c3ccc(Cl)cc3)CC2)CN1c1ccccc1 (configuration not stated) | 139 to 140 °C |
| CCCc1c(O)c(C(C)=O)cc(I)c1OCC(O)COc1ccc2c(=O)cc(C(=O)O)oc2c1CCC (configuration not stated) | 173 to 176 °C |
| COC(=O)COc1ccc(C(=O)CN(C)C(=O)c2ccc(C(=N)N)cc2)cc1OCC(=O)OC | 177 to 178 °C |
| CC(=O)C(=NNc1cccc2ccccc12)Sc1ccc(C(C)C)cc1 | 130 to 133 °C |
| COc1cc(C(F)(F)F)nc2c(N3CCC4(CC3)OCCO4)ccc(F)c12 | 101 to 103 °C |
| Cc1ncnn1-c1ccc([N+](=O)[O-])cc1F | 56 to 58 °C |
| CCCCCCCC(=O)CCCCCC(=O)N[C@@H](C)C(=O)O | 84 to 86 °C |
| COc1ccc(C2CCCN(C)C2)c2c1NC(=O)C2 (configuration not stated) | 170 °C |
| CC(O)COc1ccc2c(c1)OC(C)(C)CC2=O (configuration not stated) | 111 to 113 °C |
| Clc1c(NC2=NCCO2)ccc2[nH]ncc12 | 223 to 225 °C |
| CCCCNc1cccc([N+](=O)[O-])c1C#N | 72 to 74 °C |
| Cc1cnn(-c2ccc(Cl)cc2Cl)c(=O)c1Br | 108 °C |
| C=C(CBr)S(=O)(=O)C(C)(C)C | 40.5 to 42 °C |
| CCc1[nH]n(C2CCCC2)c2nc(Cc3cccc(O)c3)nc(=O)c1-2 | 195 to 197 °C |
| Cc1c(F)cc2[nH]c(=O)c(=O)[nH]c2c1[N+](=O)[O-] | 308 to 311 °C |
| CC(C)(CO)NC(=O)c1nn(-c2ccc(F)cc2F)c2c1C1CCC2CC1 | 128 to 131 °C |
| Fc1ccc(-c2c(-c3ccccc3)oc3ncnc(Cl)c23)cc1 | 124 to 127 °C |

The next lines start with the values.

| melting point | Compound |
| --- | --- |
| 92 to 97 °C | COc1cc(F)ccc1-c1ccc(S(=O)(=O)N2c3ccccc3CC2C(=O)NCc2ccccc2N)cc1 (configuration not stated) |
| 123 to 125 °C | CCOC(=O)C(Cc1ccc(C(C(N)=O)C(C)c2ccccc2N2CCCCC2)cc1)C(=O)OCC (configuration not stated) |
| 192 to 193 °C | Cc1ccc(S(=O)(=O)Nc2ccc(/C(CN3CCN(C)CC3)=N/O)cc2)cc1 |
| 109 to 110 °C | CN1CCOc2ccc(S(=O)(=O)Nc3ccc(CCl)cc3I)cc21 |
| 135 to 137 °C | COC(=O)C(Oc1ccc(F)cc1)c1ccc(Oc2ccc(S(C)(=O)=O)cc2)cc1 (configuration not stated) |
| 219 to 220 °C | CCOC(=O)Nc1ccc2sc(C)cc(=O)c2c1 |
| 190 to 192 °C | COc1ccc(COc2c(O)cc3c(c2Cl)CCN(C(=O)OC(C)(C)C)CC3c2ccc(O)cc2)cc1 (configuration not stated) |
| 45 to 49 °C | CCOC(=O)C1=C[C@@H]2OC(C)=N[C@@H]2[C@@H](NC(=O)OC(C)(C)C)C1 |
| 132 to 134 °C | CC(C)N(C(=O)COc1ccc(-c2ccc(C(=O)O)cc2C(F)(F)F)cc1)C(C)C |
| 144 to 146 °C | CCOC(=O)NC(=O)C(C#N)=CNNc1ccc(OC(F)F)cc1 |
| 198 to 200 °C | COc1ccc2[nH]c3c(c2c1)CCN(C(C)=O)C3C (configuration not stated) |
| 143 to 147 °C | COC(=O)CP(=O)(O)C(CCc1ccccc1)NC(=O)OCc1ccccc1 (configuration not stated) |
| 90 to 91 °C | CC1CCCCN1CCC(CCN(C(C)C)C(C)C)(C(N)=O)c1ccccc1F (configuration not stated) |
| 153 to 154 °C | CCOC(=O)Cn1c(C(=O)NCc2nnc(C)n2-c2sc(C)cc2C(=O)c2ccccc2Cl)cc2ccccc21 |
| 140 °C | O=C(O)CCCCCN1C(=O)c2ccc([N+](=O)[O-])cc2C1=O |
| 50 to 52 °C | C=C(COc1ccccc1C=O)C(=O)OC |
| 82 to 83 °C | CCOC(=O)[C@H]1CC(OC(C)=O)CN1S(=O)(=O)c1ccc(C)cc1 (some centres not stated) |
| 120 °C | CCOC(=O)c1ccc(-c2cccc(CNC=O)n2)cc1 |
| 138 to 140 °C | Cc1ccc(S(=O)(=O)NCC(CC(C)C)NS(=O)(=O)c2ccc(C)cc2)cc1 (configuration not stated) |
| 149 to 150 °C | CC(=O)N1c2ccccc2-c2c([N+](=O)[O-])cnn2C1C (configuration not stated) |
| 193 to 194 °C | COc1ccc2c(c1)CCN(C(=O)OCc1ccccc1)C21CCC(C(=O)O)(C(=O)O)CC1 |
| 215 to 216 °C | COc1ccccc1N1CCN(CC(=O)Nc2ccc3c(c2NC(=O)c2ccc(C)cc2)C(=O)c2ccccc2C3=O)CC1 |
| 70.4 to 70.5 °C | CCCCCS(=O)(=O)NC(=O)CCc1ccc(OCCOC)cc1Oc1ccccc1 |
| 162 to 165 °C | Cc1ccc2c(c1)N(CC(=O)c1ccccc1C)C(=O)C(NC(=O)Nc1cccc(C(=O)O)c1)CN2C(=O)C(C)C (configuration not stated) |
| 232 to 233 °C | COc1cc(C(=O)O)ccc1Cc1cn(C)c2ccc(CC3CCN(C)C3=O)cc12 (configuration not stated) |
| 145 to 146 °C | CC(C)NS(=O)(=O)Oc1ccc(F)cc1 |
| 193 to 195 °C | COc1ccnc(CCc2nc3cc(-c4ccc(S(=O)(=O)N5CCN(C)CC5)cc4)cnc3[nH]2)c1 |
| 128 to 131 °C | CCOC(=O)c1cn(-c2ccc(F)c(NC(=O)OC(C)(C)C)c2F)c2nc(Cl)c(F)cc2c1=O |
| 94 to 97 °C | CCOc1cc(Cl)nc(Sc2ccc(C)cc2)n1 |
